Experimental data: ChEMBL document CHEMBL4371065, “Design and synthesis of biaryloxazolidinone derivatives containing a rhodanine or thiohydantoin moiety as novel antibacterial agents against Gram-positive bacteria” (Bioorg Med Chem Lett, 2019)
pIC50: −log10 of the molar value. Values after ≈ are worked out from the molar mass of the structure shown.

What was measured:
[1] = test system: Staphylococcus aureus; test: Antibacterial activity against Staphylococcus aureus ATCC 29213 by broth liquid microdilution method; type: functional
[2] = test system: Staphylococcus aureus; test: Antibacterial activity against methicillin-resistant Staphylococcus aureus by broth liquid microdilution method; type: functional
[3] = test system: Staphylococcus aureus; test: Antibacterial activity against methicillin-sensitive Staphylococcus aureus by broth liquid microdilution method; type: functional
[4] = test system: Enterococcus faecalis; test: Antibacterial activity against linezolid-resistant Enterococcus faecalis by broth liquid microdilution method; type: functional
[5] = test system: Enterococcus faecium; test: Antibacterial activity against vancomycin-resistant Enterococcus faecium by broth liquid microdilution method; type: functional
[6] = test system: Staphylococcus aureus; test: Antibacterial activity against clinical isolates of methicillin-resistant Staphylococcus aureus by broth liquid microdilution method; type: functional
[7] = test system: Staphylococcus aureus; test: Antibacterial activity against clinical isolates of methicillin-sensitive Staphylococcus aureus by broth liquid microdilution method; type: functional
[8] = test system: Enterococcus faecalis; test: Antibacterial activity against clinical isolates of linezolid-resistant Enterococcus faecalis by broth liquid microdilution method; type: functional
[9] = test system: Enterococcus faecium; test: Antibacterial activity against clinical isolates of vancomycin-resistant Enterococcus faecium by broth liquid microdilution method; type: functional
[10] = test system: Enterococcus faecalis; test: Potency index, ratio of linezolid MIC to compound MIC for clinical isolates of linezolid-resistant Enterococcus faecalis; type: functional
[11] = test system: HepG2; test: Cytotoxicity against human HepG2 cells after 48 hrs by MTT assay; type: cell-based; details: HepG2, 48 h
[12] = target: T1, MAO-A (Homo sapiens, UniProt P21397); test: Inhibition of recombinant human full length N-terminal FLAG-tagged MAO-A expressed in sf9 cells at 30 uM preincubated for 15 mins followed by substrate addition and measured after 60 mins by luminescence assay relative to control
T1 sequence (P21397 whole entry): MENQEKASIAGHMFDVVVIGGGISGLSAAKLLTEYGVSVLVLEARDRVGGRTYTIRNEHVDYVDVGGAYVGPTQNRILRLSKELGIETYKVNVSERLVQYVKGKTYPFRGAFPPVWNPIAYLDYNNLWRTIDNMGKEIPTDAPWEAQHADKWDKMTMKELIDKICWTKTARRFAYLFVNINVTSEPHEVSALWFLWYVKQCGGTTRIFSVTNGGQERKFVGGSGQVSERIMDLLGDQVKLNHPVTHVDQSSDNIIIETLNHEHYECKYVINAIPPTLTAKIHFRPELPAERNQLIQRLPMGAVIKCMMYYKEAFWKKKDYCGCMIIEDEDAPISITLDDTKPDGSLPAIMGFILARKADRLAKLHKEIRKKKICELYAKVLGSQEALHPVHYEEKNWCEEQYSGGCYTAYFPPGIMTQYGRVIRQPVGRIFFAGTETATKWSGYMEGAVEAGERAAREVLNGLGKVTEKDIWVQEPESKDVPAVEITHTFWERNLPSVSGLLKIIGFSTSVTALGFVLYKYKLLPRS

[13] = test system: Staphylococcus aureus; test: Potency index, ratio of radezolid MIC to compound MIC for Staphylococcus aureus ATCC 29213; type: functional
[14] = test system: Staphylococcus aureus; test: Potency index, ratio of radezolid MIC to compound MIC for methicillin-sensitive Staphylococcus aureus; type: functional
[15] = test system: Enterococcus faecalis; test: Potency index, ratio of radezolid MIC to compound MIC for linezolid-resistant Enterococcus faecalis; type: functional
[16] = test system: Enterococcus faecium; test: Potency index, ratio of radezolid MIC to compound MIC for vancomycin-resistant Enterococcus faecium; type: functional

SMILES	MIC [1]	MIC [2]	MIC [3]	MIC [4]	MIC [5]	MIC [6]	MIC [7]	MIC [8]	MIC [9]	Ratio [10]	pIC50 [11]	inhibition at 1 h, 30 µM [12]	Ratio [13]	Ratio [14]	Ratio [15]	Ratio [16]
CC(=O)NC[C@H]1CN(c2ccc(-c3ccc(/C=C4\SC(=S)N(CC(=O)O)C4=O)cc3)c(F)c2)C(=O)O1	1 µg/mL (≈ 1.89 µM)	1 µg/mL (≈ 1.89 µM)	1 µg/mL (≈ 1.89 µM)	1 µg/mL (≈ 1.89 µM)	1 µg/mL (≈ 1.89 µM)											
CC(=O)NC[C@H]1CN(c2ccc(-c3ccc(/C=C4\SC(=S)N(C(C)C(=O)O)C4=O)cc3)c(F)c2)C(=O)O1 (stereo partly specified)	1 µg/mL (≈ 1.84 µM)	1 µg/mL (≈ 1.84 µM)	1 µg/mL (≈ 1.84 µM)	1 µg/mL (≈ 1.84 µM)	1 µg/mL (≈ 1.84 µM)											
CC(=O)NC[C@H]1CN(c2ccc(-c3ccc(/C=C4\SC(=S)N(CCCN5CCCCC5)C4=O)cc3)c(F)c2)C(=O)O1	1 µg/mL (≈ 1.68 µM)	1 µg/mL (≈ 1.68 µM)	1 µg/mL (≈ 1.68 µM)	1 µg/mL (≈ 1.68 µM)	1 µg/mL (≈ 1.68 µM)											
CCN(CC)CCCN1C(=O)/C(=C/c2ccc(-c3ccc(N4C[C@H](CNC(C)=O)OC4=O)cc3F)cc2)NC1=S	0.125 µg/mL (≈ 0.22 µM)	0.125 µg/mL (≈ 0.22 µM)	0.125 µg/mL (≈ 0.22 µM)	0.125 µg/mL (≈ 0.22 µM)	0.125 µg/mL (≈ 0.22 µM)	0.125 to 0.5 µg/mL (≈ 0.22 to 0.881 µM)	0.125 to 0.25 µg/mL (≈ 0.22 to 0.44 µM)	0.125 to 0.25 µg/mL (≈ 0.22 to 0.44 µM)	0.25 to 0.5 µg/mL (≈ 0.44 to 0.881 µM)	64	4.04	98%				
CCOC(=O)CN1C(=O)/C(=C/c2ccc(-c3ccc(N4C[C@H](CNC(C)=O)OC4=O)cc3F)cc2)SC1=S	1 µg/mL (≈ 1.79 µM)	1 µg/mL (≈ 1.79 µM)	1 µg/mL (≈ 1.79 µM)	1 µg/mL (≈ 1.79 µM)	1 µg/mL (≈ 1.79 µM)											
CC(=O)NC[C@H]1CN(c2ccc(-c3ccc(/C=C4\NC(=S)N(CCCN5CCOCC5)C4=O)cc3)c(F)c2)C(=O)O1	2 µg/mL (≈ 3.44 µM)	2 µg/mL (≈ 3.44 µM)	2 µg/mL (≈ 3.44 µM)	2 µg/mL (≈ 3.44 µM)	2 µg/mL (≈ 3.44 µM)											
CC(=O)NC[C@H]1CN(c2ccc(-c3ccc(/C=C4\NC(=S)N(CCCN5CCCCC5)C4=O)cc3)c(F)c2)C(=O)O1	1 µg/mL (≈ 1.73 µM)	1 µg/mL (≈ 1.73 µM)	1 µg/mL (≈ 1.73 µM)	1 µg/mL (≈ 1.73 µM)	1 µg/mL (≈ 1.73 µM)											
CC(=O)NC[C@H]1CN(c2ccc(-c3ccc(/C=C4\SC(=S)N(C)C4=O)cc3)c(F)c2)C(=O)O1	0.25 µg/mL (≈ 0.515 µM)	0.25 µg/mL (≈ 0.515 µM)	0.25 µg/mL (≈ 0.515 µM)	0.25 µg/mL (≈ 0.515 µM)	0.25 µg/mL (≈ 0.515 µM)											
CC(=O)NC[C@H]1CN(c2ccc(-c3ccc(/C=C4\SC(=S)N(C(C(=O)O)c5ccccc5)C4=O)cc3)c(F)c2)C(=O)O1 (stereo partly specified)	1 µg/mL (≈ 1.65 µM)	1 µg/mL (≈ 1.65 µM)	1 µg/mL (≈ 1.65 µM)	1 µg/mL (≈ 1.65 µM)	1 µg/mL (≈ 1.65 µM)											
CC(=O)NC[C@H]1CN(c2ccc(-c3ccc(/C=C4\SC(=S)NC4=O)cc3)c(F)c2)C(=O)O1	0.125 µg/mL (≈ 0.265 µM)	0.125 µg/mL (≈ 0.265 µM)	0.125 µg/mL (≈ 0.265 µM)	0.125 µg/mL (≈ 0.265 µM)	0.125 µg/mL (≈ 0.265 µM)		1 to 2 µg/mL (≈ 2.12 to 4.24 µM)	1 to 2 µg/mL (≈ 2.12 to 4.24 µM)	1 to 2 µg/mL (≈ 2.12 to 4.24 µM)		4.19	99%	4	4	4	4
